Measurements published in patent US8361965B2, “Recombinant chimeric protein of neutrophil inhibitory factor and hirugen, and pharmaceutical composition thereof” (Lunan Pharmaceutical Group Corporation, priority 2008, dated 2013).

Columns and labels:
blood coagulation system [1] = assay: effects on blood coagulation system of New Zealand rabbits in vivo (APTT, PT, TT); set-up: species or system New Zealand rabbit; PT: unit not given beside the values; APTT / TT: unit not given here
Procedure: Medicaments were administrated via intravenous injection from marginal ear vein, and 1.8 ml blood was harvested from marginal ear veins at the time of before administration (0 min), and 10 min, 30 min, 60 min, 120 min and 240 min after administration, respectively (the time for injecting is 2 min). 3.2% sodium citrate (9:1) was added for anticoagulation and then mixed and centrifuged at 3000 rpm/min for 3 min. The plasma was send to Department of Clinical Laboratory, Southwest Hospital for determining blood coagulation indexes (APTT, TT and PT) with a full automatic coagulation analyzer and the difference before and after administration was obtained by comparison.

blood coagulation system [2] = assay: effects on blood coagulation system of New Zealand rabbits in vitro (APTT, PT, TT); type: biochemical, New Zealand rabbit; set-up: PT: unit not given beside the values; APTT / TT: unit not given here
Procedure: Medicaments were diluted to the following concentrations for use: TNHH: 3.0 mg/ml; 1.0 mg/ml; 333 μg/ml; bivalrudin: 600 μg/ml; 200 μg/ml; 67 μg/ml; Hirudin: 660 μg/ml; 220 μg/ml; 73 μg/ml.
The blood was sampled from six New Zealand rabbits (10×1.8 ml for each one) from marginal ear vein and added into 10 anticoagulation tubes, respectively. 3.2% sodium citrate (9:1) was added for anticoagulation.
20 μl anticoagulated blood was taken from each tube, followed by the addition of 20 μl above diluted medicaments for each tube. 20 μl physiological saline was added into the control tube. Samples were mixed thoroughly and centrifuged at 3000 rpm/min for 3 min, and plasma was send to Department of Clinical Laboratory, Southwest Hospital for determining blood coagulation indexes (APTT, TT and PT) with a full automatic coagulation analyzer and the difference before and after administration was obtained by comparison.

[3] = tested on: platelet aggregation induced by human thrombin; assay: antiplatelet aggregation assay (rabbits dosed i.v., thrombin-induced aggregation of PRP); type: in vivo, Japanese Giant Ear White Rabbits
Procedure: Platelet aggregation rate was determined by puncture of the central artery of the ear before administration, and then rabbits were randomly divided into 5 groups (4 in each group) based on the platelet aggregation rate and body weight: (1) negative control group (5.12 mg mannitol/kg), (2) high dose TNHH group (4.0 mg/kg), (3) middle dose TNHH group (2.0 mg/kg), (4) low dose TNHH group (1.0 mg/kg), and (5) positive control group (0.1 mg recombinant hirudin/kg). The rabbits in each group were administered at the dose respectively via intravenous injection from the marginal ear vein. Blood samples were collected at the time of 15 min after administration (timed by stopwatch) by puncture of the central artery of the ear to determine the platelet aggregation rate. The method of platelet aggregation rate determination was described as follows: the blood samples were collected by puncture of the central artery of the ear using silicified syringe. 3.8% anticoagulant sodium citrate solution (blood: anticoagulant=9:1) was used. The sample was centrifuged at 200×g for 8 min, and the supernatant obtained was platelet-rich plasma (PRP); then the remaining part was centrifuged again at 2200×g for 10 min, and the supernatant obtained was platelet-poor plasma (PPP). The platelet in PRP was counted as approximate 4.0×10^5/mm^3. According to Born's turbidimetry, a turbidimetric tube with 200 μl PRP and a small magnetic bar was placed in a platelet aggregation instrument and incubated at 37 for 1 min. After calibrating with PPP, the platelet was induced to aggregate by adding inductive human thrombin (0.76 IU/ml) under stirring. The effect of medicaments on the aggregation of platelet was analyzed using the aggregation curve and the maximum aggregation rate obtained from the instrument. The maximum aggregation rate was calculated according to the formula below: […]

rabbit whole blood = assay: in vitro whole blood anticoagulation assay; set-up: species or system white rabbit; conditions: 0.2 ml heparin sodium 1 mg/ml + 1.0 ml rabbit blood; room temperature 15 min
Procedure: TNHH was diluted to 4 mg/ml, 2 mg/ml, 1 mg/ml, 0.5 mg/ml respectively with phosphate buffer solution (10 mmol/L PB, 0.15 mol/L NaCl, pH7.4). Heparin sodium was prepared to 1 mg/ml with the same buffer solution.
Venous blood was taken from marginal ear vein of the rabbit, and rapidly added into 0#-5# tubes. 0.2 ml of the diluted TNHH samples with different concentrations was added into the 1#-4# tubes, respectively. 0.2 ml phosphate buffer solution was added into the 0# tube, which was used as a negative control. 0.2 ml heparin sodium (1 mg/ml) was added into the 5# tube, which was used as a positive control. The reagents were mixed rapidly and stored at room temperature for 15 min for observing the results.

leukocyte adhesion = assay: anti-leukocyte adhesion activity, in vitro comparative analysis; type: cell-based; conditions: in vitro
[4] = Bivalrudin 1.50 mg/kg i.v., 0 min (before administration)
[5] = Bivalrudin 1.50 mg/kg i.v., 10 min
[6] = Bivalrudin 1.50 mg/kg i.v., 30 min
[7] = Bivalrudin 1.50 mg/kg i.v., 60 min
[8] = Bivalrudin 1.50 mg/kg i.v., 120 min
[9] = Bivalrudin 1.50 mg/kg i.v., 240 min
[10] = bivalrudin 0.67 μg/ml in rabbit blood
[11] = bivalrudin 2.00 μg/ml in rabbit blood
[12] = bivalrudin 6.00 μg/ml in rabbit blood
[13] = Hirudin 0.50 mg/kg i.v., 0 min (before administration)
[14] = Hirudin 0.50 mg/kg i.v., 10 min
[15] = Hirudin 0.50 mg/kg i.v., 30 min
[16] = Hirudin 0.50 mg/kg i.v., 60 min
[17] = Hirudin 0.50 mg/kg i.v., 120 min
[18] = Hirudin 0.50 mg/kg i.v., 240 min
[19] = hirudin 0.73 μg/ml in rabbit blood
[20] = hirudin 2.20 μg/ml in rabbit blood
[21] = hirudin 6.60 μg/ml in rabbit blood

Work on “Bivalrudin: lyophilized powder for injection, manufactured by Chengdu Jiexun Biotechnical Co., Ltd. [reference compound]” yielded an APTT (blood coagulation system [1]; [4]) of 40.7 ± 5.77, a PT (blood coagulation system [1]; [4]) of 6.87 ± 0.21 and a TT (blood coagulation system [1]; [4]) of 15.28 ± 1.60. The APTT (blood coagulation system [1]; [5]) was 45.75 ± 7.20, the PT (blood coagulation system [1]; [5]) was 8.27 ± 0.67 and the TT (blood coagulation system [1]; [5]) was 71.18 ± 23.37. It also gave an APTT (blood coagulation system [1]; [6]) of 39.33 ± 6.62, a PT (blood coagulation system [1]; [6]) of 7.40 ± 0.27 and a TT (blood coagulation system [1]; [6]) of 36.12 ± 14.00. It also gave an APTT (blood coagulation system [1]; [7]) of 38.03 ± 5.55, a PT (blood coagulation system [1]; [7]) of 7.10 ± 0.15 and a TT (blood coagulation system [1]; [7]) of 26.68 ± 7.30. For the same molecule, the APTT (blood coagulation system [1]; [8]) was 32.68 ± 4.77, the PT (blood coagulation system [1]; [8]) was 7.02 ± 0.12 and the TT (blood coagulation system [1]; [8]) was 15.40 ± 2.16. It also gave an APTT (blood coagulation system [1]; [9]) of 34.57 ± 5.56, a PT (blood coagulation system [1]; [9]) of 6.90 ± 0.18 and a TT (blood coagulation system [1]; [9]) of 15.50 ± 2.36. The APTT (blood coagulation system [2]; [10]) was 35.12 ± 8.04, the PT (blood coagulation system [2]; [10]) was 7.83 ± 0.39 and the TT (blood coagulation system [2]; [10]) was 43.22 ± 8.13. The APTT (blood coagulation system [2]; [11]) was 40.75 ± 8.71, the PT (blood coagulation system [2]; [11]) was 8.75 ± 0.52 and the TT (blood coagulation system [2]; [11]) was 53.67 ± 9.03. It also gave an APTT (blood coagulation system [2]; [12]) of 55.00 ± 12.4, a PT (blood coagulation system [2]; [12]) of 11.08 ± 1.20 and a TT (blood coagulation system [2]; [12]) of 85.38 ± 23.07.

Work on hirudin [reference compound] yielded an APTT (blood coagulation system [1]; [13]) of 38.02 ± 6.54, a PT (blood coagulation system [1]; [13]) of 6.80 ± 0.28 and a TT (blood coagulation system [1]; [13]) of 16.40 ± 1.73. It also gave an APTT (blood coagulation system [1]; [14]) of 39.97 ± 5.69, a PT (blood coagulation system [1]; [14]) of 7.27 ± 0.22 and a TT (blood coagulation system [1]; [14]) of 112.70. The APTT (blood coagulation system [1]; [15]) was 37.72 ± 5.55, the PT (blood coagulation system [1]; [15]) was 7.01 ± 0.31 and the TT (blood coagulation system [1]; [15]) was 84.93 ± 49.24. The APTT (blood coagulation system [1]; [16]) was 35.02 ± 7.59, the PT (blood coagulation system [1]; [16]) was 6.95 ± 0.34 and the TT (blood coagulation system [1]; [16]) was 58.17 ± 33.19. It also gave an APTT (blood coagulation system [1]; [17]) of 32.05 ± 5.69, a PT (blood coagulation system [1]; [17]) of 6.97 ± 0.27 and a TT (blood coagulation system [1]; [17]) of 30.42 ± 17.09. The APTT (blood coagulation system [1]; [18]) was 32.07 ± 5.97, the PT (blood coagulation system [1]; [18]) was 7.08 ± 0.26 and the TT (blood coagulation system [1]; [18]) was 16.30 ± 2.32. The APTT (blood coagulation system [2]; [19]) was 37.47 ± 6.15, the PT (blood coagulation system [2]; [19]) was 7.33 ± 0.33 and the TT (blood coagulation system [2]; [19]) was 50.40 ± 8.19. The APTT (blood coagulation system [2]; [20]) was 52.85 ± 15.88, the PT (blood coagulation system [2]; [20]) was 7.87 ± 0.37 and the TT (blood coagulation system [2]; [20]) was 102.77 ± 21.90. The APTT (blood coagulation system [2]; [21]) was 58.43 ± 14.36, the PT (blood coagulation system [2]; [21]) was 9.37 ± 1.30 and the TT (blood coagulation system [2]; [21]) was 116.40 ± 8.82. For the same molecule, the “aggregation ratio, Before administration” value ([3]; hirudin 0.1 mg/kg group) was 58.44 ± 4.42%, the “aggregation ratio, 15 min after administration” value ([3]; hirudin 0.1 mg/kg i.v.) was 4.34 ± 6.88% and the “aggregation ratio, difference” value ([3]; hirudin 0.1 mg/kg i.v., before vs 15 min after) was 54.09 ± 8.69 %.

In the case of heparin sodium [reference compound], the “Test results (blood coagulation)” value (rabbit whole blood) is reported as “not coagulated and Non-”.

“Hirogen: artificial dodecapeptide based on the C-terminal 53rd-64th amino acids of hirudin (NGDFEEIPEEYL) (not fully specified) [reference compound]” was tested, and the anti-leukocyte adhesion activity (leukocyte adhesion) was “none”.

B1: TNHH-G15/n3: recombinant TNHH with linker 1 (Gly)15 and linker 2 (GSGG)3: NIF-(Gly)15-FPRP-(GSGG)3-hirugen (protein)
chain: MNEHNLRCPQNGTEMPGFNDSIRLQFLAMHNGYRSKLALGHISITEESESDDDDDFGFLPDFAPRASKMRYLEYDCEAEKSAYMSARNCSDSSSPPEGYDENKYIFENSNNISEAALKAMISWAKEAFNLNKTKEGEGVLYRSNHDISNFANLAWDAREKFGCAVVNCPLGEIDDETNHDGETYATTIHVVCHYPKINKTEGQPIYKVGTPCDDCSEYTKKADNTTSADPVCIPDDGVCFIGSKADYDSKEFYRFRELGGGGGGGGGGGGGGGFPRPGSGGGSGGGSGGNGDFEEIPEEYL
In the case of B1, the anti-leukocyte adhesion activity (leukocyte adhesion) is reported as 740 Unit/mg.
